Laboratory results: patent US5589568A (priority 1994, dated 1996)
Like-named read-outs stand apart in the source and are kept apart here. Where a SMILES comes first, the peptide text is derived from it. Where no end group is shown, it is not given here. The star is where a group is joined. Dodecyl = CCCCCCCCCCCC*

What was measured:
Gs = Gs (Homo sapiens, UniProt P63092); assay: steady state GTPase activity of Gs; assay type: biochemical; conditions: read-out: Gs af. (apparent affinity, estimated by EC50 of GTPase activity)
Sequence of Gs (P63092 whole entry): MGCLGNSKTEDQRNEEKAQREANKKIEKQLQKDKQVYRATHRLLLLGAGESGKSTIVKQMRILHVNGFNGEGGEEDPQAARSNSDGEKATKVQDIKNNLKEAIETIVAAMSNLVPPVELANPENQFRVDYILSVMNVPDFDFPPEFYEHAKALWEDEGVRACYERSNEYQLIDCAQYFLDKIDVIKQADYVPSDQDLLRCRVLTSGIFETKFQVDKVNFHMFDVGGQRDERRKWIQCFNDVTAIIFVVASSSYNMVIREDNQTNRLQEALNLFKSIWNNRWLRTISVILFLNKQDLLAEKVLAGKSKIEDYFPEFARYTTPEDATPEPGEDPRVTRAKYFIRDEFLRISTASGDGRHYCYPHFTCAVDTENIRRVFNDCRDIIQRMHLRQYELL
Method: Methods for the assay of steady state GTP hydrolysis and GTPγS binding have been described previously by Higashijima, 1987, and Ferguson, 1986, and incorporated herein by reference. Unless noted otherwise, assays of steady state GTP hydrolysis and of the binding and dissociation of guanine nucleotides were carried out in the buffer described previously, but without detergent and with 1.1 mM MgSO4 and the nucleotide specified in the text. When necessary, the concentration of free Mg^2+ was adjusted using EDTA buffers as described previously by Higashijima, 1987, and incorporated herein by reference.
The data set forth in the following tables represent data generated by the inventors employing the steady state GTP hydrolysis, expressed as molar turnover numbers, are described herein under the "Assay" section of the Experimental Procedures in Example 1. The data has been classified according to the criteria outlined below and the effects of each peptide and modified variant on Go, Gi, and Gs have been tabulated. Table III below sets forth data generated for various mastoparan analogues designed by the inventors, in comparison with the various naturally-occurring mastoparans (e.g., MP, MP-A and MP-T). Table IV sets forth similar data generated for various receptor-based peptides designed by the inventors based on a consideration of various G-protein linked receptors.
Apparent affinity (af.) and apparent efficacy (ef.) were estimated by EC50 and maximum turnover number of GTPase activity.

Go = biological target: T1, Go (Bos taurus, UniProt P08239); assay: steady state GTPase activity of Go in phospholipid vesicles; assay type: biochemical, bovine
T1 construct: proteins were extracted from bovine cerebral cortical membranes; from tissue; host or cells: bovine brain (cerebral cortical membranes)
T1 sequence (P08239 2-354 limits assumed): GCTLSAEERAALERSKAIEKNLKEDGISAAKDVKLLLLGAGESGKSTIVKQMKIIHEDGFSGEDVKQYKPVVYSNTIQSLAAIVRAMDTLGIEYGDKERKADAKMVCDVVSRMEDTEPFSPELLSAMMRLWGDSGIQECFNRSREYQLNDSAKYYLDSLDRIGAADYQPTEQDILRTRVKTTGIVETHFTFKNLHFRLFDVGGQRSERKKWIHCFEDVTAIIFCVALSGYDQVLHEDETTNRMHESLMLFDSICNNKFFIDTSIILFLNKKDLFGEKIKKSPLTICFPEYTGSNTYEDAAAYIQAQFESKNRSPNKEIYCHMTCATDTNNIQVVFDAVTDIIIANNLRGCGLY
T1 sequence (P62871 2-340 partner limits assumed): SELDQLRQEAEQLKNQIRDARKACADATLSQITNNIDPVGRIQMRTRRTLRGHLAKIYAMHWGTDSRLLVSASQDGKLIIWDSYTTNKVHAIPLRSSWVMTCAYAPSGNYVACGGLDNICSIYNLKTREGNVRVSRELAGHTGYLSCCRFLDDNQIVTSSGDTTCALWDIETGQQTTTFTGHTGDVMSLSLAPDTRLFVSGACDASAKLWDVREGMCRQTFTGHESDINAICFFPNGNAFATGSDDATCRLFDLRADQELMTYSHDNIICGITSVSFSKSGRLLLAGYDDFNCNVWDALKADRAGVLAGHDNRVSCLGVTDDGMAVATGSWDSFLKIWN
T1 sequence (P63212 2-68 partner limits assumed): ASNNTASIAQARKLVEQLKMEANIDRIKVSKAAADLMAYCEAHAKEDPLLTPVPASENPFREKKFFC
Source text: G proteins were reconstituted into phospholipid vesicles composed of dioleoyl-PC/bovine brain PS/1-palmitoyl,2-oleoyl-PE (3:4:3) as reported previously by Higashijima et al., 1988, incorporated herein by reference.

[1] = Table VI, receptor-based peptides

| Compound | EC50 (Gs; [1]) [µM] | EC50 (Go) [µM] | EC50 (Gs; Table IV) [µM] |
| --- | --- | --- | --- |
| CCCCCCCCCCCCSC[C@H](NC(=O)[C@@H](NC(=O)[C@@H](NC(=O)CNC(=O)[C@H](CC(C)C)NC(=O)[C@@H](NC(=O)[C@H](CCCCN)NC(=O)[C@H](CC(C)C)NC(=O)[C@H](C)NC(=O)[C@H](CCCCN)NC(=O)[C@H](Cc1c[nH]cn1)NC(=O)[C@H](CCC(=O)O)NC(=O)[C@@H](N)CCCNC(=N)N)[C@@H](C)O)[C@@H](C)CC)[C@@H](C)CC)C(N)=O [C12-ER40] (H-REHKALKTLGIIC(Dodecyl)-NH2) | 3 to 10 | 3 to 10 |  |
| CC[C@H](C)[C@H](N)C(=O)N[C@@H](CC(N)=O)C(=O)N[C@@H](Cc1ccc(O)cc1)C(=O)N[C@@H](CCCCN)C(=O)N[C@@H](C)C(=O)N[C@@H](CC(C)C)C(=O)N[C@@H](C)C(=O)N[C@@H](C)C(=O)N[C@@H](CC(C)C)C(=O)N[C@@H](C)C(=O)N[C@@H](CCCCN)C(=O)N[C@@H](CCCCN)C(=O)N[C@H](C(=O)N[C@@H](CC(C)C)C(N)=O)[C@@H](C)CC [ER13] |  | 3 to 10 | 3 to 10 |
| CC[C@H](C)[C@H](N)C(=O)N[C@@H](CC(N)=O)C(=O)N[C@@H](CC(C)C)C(=O)N[C@@H](CCCCN)C(=O)N[C@@H](C)C(=O)N[C@@H](CC(C)C)C(=O)N[C@@H](C)C(=O)N[C@@H](C)C(=O)N[C@@H](CC(C)C)C(=O)N[C@@H](C)C(=O)N[C@@H](CCCCN)C(=O)N[C@@H](CCCCN)C(=O)N[C@@H](CC(C)C)C(=O)N[C@@H](CC(C)C)C(N)=O [MAS03] |  | 3 to 10 | 10 to 30 |
| CC[C@H](C)[C@H](N)C(=O)N[C@@H](CC(N)=O)C(=O)N[C@@H](CC(C)C)C(=O)N[C@@H](CCCCN)C(=O)N[C@@H](C)C(=O)N[C@@H](CC(C)C)C(=O)N[C@@H](C)C(=O)N[C@@H](C)C(=O)N[C@@H](CC(C)C)C(=O)N[C@@H](C)C(=O)N[C@@H](CCCCN)C(=O)N[C@@H](CCCCN)C(=O)N[C@@H](C)C(=O)N[C@@H](CC(C)C)C(N)=O [MAS05, INLKALAALAKKAL] |  | 10 to 30 | 10 to 30 |
| CC[C@H](C)[C@H](N)C(=O)N[C@@H](CC(N)=O)C(=O)N[C@@H](CC(C)C)C(=O)N[C@@H](CCCCN)C(=O)N[C@@H](C)C(=O)N[C@@H](CC(C)C)C(=O)N[C@@H](C)C(=O)N[C@@H](C)C(=O)N[C@@H](CC(C)C)C(=O)N[C@@H](C)C(=O)N[C@@H](CCCCN)C(=O)N[C@@H](CCCCN)C(=O)N[C@@H](CCCCN)C(=O)N[C@@H](CC(C)C)C(N)=O [MAS06] |  | 30 to 100 | 30 to 100 |
| CISRASKSRIKKDKKEPVAIL-NH2 [ER44] | 30 to 100 | < 3 |  |
| CISRASKSRIKKDKKIL-NH2 [ER45] | 3 to 10 | < 3 |  |
| CIYRETENRARELAALQGSET-NH2 [ER32] | > 100 | > 100 |  |
| CIYRETENRARELAALQGSETIL-NH2 [ER33] | > 100 | > 100 |  |
| CLLKALAALAKALL-NH2 [ER30] |  | 3 to 10 | 3 to 10 |
| CNYKALAALAKALL-NH2 [ER16] |  | 3 to 10 | 10 to 30 |
| CPLSYRAKRTPRRAALM-NH2 [ER38] | 30 to 100 | 3 to 10 |  |
| CVFQVAKRQLQKIDKVL-NH2 [ER36] | 30 to 100 | 10 to 30 |  |
| CVYIVAKRTTKNLEAGVMKEIL-NH2 [ER34] | 30 to 100 | 30 to 100 |  |
| CVYIVAKRTTKNLEIL-NH2 [ER35] | > 100 | 10 to 30 |  |
| CVYREAKEQIRKIDR-NH2 [ER43] | > 100 | > 100 |  |
| CVYREAKEQIRKIDRVL-NH2 [ER18] | > 100 | 30 to 100 |  |
| CVYREAKEQIRKIL-NH2 [ER19] | > 100 | > 100 |  |
| CVYVVAKRESRGLKIL-NH2 [ER47] | > 100 | 30 to 100 |  |
| CVYVVAKRESRGLKSGLKTDIL-NH2 [ER46] | > 100 | 30 to 100 |  |
| IKWKAILDAVKKVL-NH2 [MP-A, reference compound] |  | 3 to 10 | 3 to 10 |

| Compound | EC50 (Gs; [1]) [µM] | EC50 (Go) [µM] | EC50 (Gs; Table IV) [µM] |
| --- | --- | --- | --- |
| ILLKALAALAKALL-NH2 [ER21] |  | 3 to 10 | 3 to 10 |
| INAKALAALAKKLL-NH2 [MAS21] |  | 10 to 30 | 10 to 30 |
| INFKALAALAKKLL-NH2 [MAS22] |  | 10 to 30 | 3 to 10 |
| INLAALAALAKALL-NH2 [ER4] |  | 3 to 10 | 3 to 10 |
| INLAALAALAKKLL-NH2 [Mas19] |  | 3 to 10 | 3 to 10 |
| INLKAAAALAKKLL-NH2 [MAS16] |  | 10 to 30 | 3 to 10 |
| INLKAFAALAKKLL-NH2 [MAS23] |  | 10 to 30 | 3 to 10 |
| INLKAIAAFAKKLL-NH2 [MP-T, reference compound] |  | 3 to 10 | 10 to 30 |
| INLKAKAALAKKLL-NH2 [Mas17] |  | 30 to 100 | 3 to 10 |
| INLKALAAAAKKLL-NH2 [MAS12] |  | 10 to 30 | 3 to 10 |
| INLKALAAKAKKLL-NH2 [MAS13] |  | 30 to 100 | 3 to 10 |
| INLKALAALAAALL-NH2 [ER5] |  | 3 to 10 | 3 to 10 |
| INLKALAALAAKLL-NH2 [Mas9] |  | 3 to 10 | 30 to 100 |
| INLKALAALAKALL-NH2 [ER1] |  | 3 to 10 | 3 to 10 |
| INLKALAALAKKLA-NH2 [MAS04] |  | 3 to 10 | 3 to 10 |
| INLKALAALAKNLL-NH2 [ER20] |  | 3 to 10 | 10 to 30 |
| INLKALAALAKRLL-NH2 [MAS08] |  | 3 to 10 | 3 to 10 |
| INLKALAALAQALL-NH2 [ER3] |  | 10 to 30 | 3 to 10 |
| INLKALAALARALL-NH2 [ER2] |  | < 3 | 3 to 10 |
| INLKALAALARKLL-NH2 [MAS10] |  | 3 to 10 | 3 to 10 |
| INLKALAALKKKLL-NH2 [MAS11] |  | 10 to 30 | 3 to 10 |

| Compound | EC50 (Gs; [1]) [µM] | EC50 (Go) [µM] | EC50 (Gs; Table IV) [µM] |
| --- | --- | --- | --- |
| INLKALAKLAKKLL-NH2 [MAS14] |  | 10 to 30 | 3 to 10 |
| INLKALKALAKALL-NH2 [ER10] |  | < 3 | 3 to 10 |
| INLKALKALAKKLL-NH2 [MAS15] |  | 10 to 30 | 3 to 10 |
| INLKKLAALAKKLL-NH2 [MAS18] |  | 10 to 30 | 3 to 10 |
| INLQALAALAKALL-NH2 [ER8] |  | 3 to 10 | 3 to 10 |
| INLQALAALAQALL-NH2 [ER9] |  | 30 to 100 | 10 to 30 |
| INLQALKALAKALL-NH2 [ER11] |  | 3 to 10 | 3 to 10 |
| INLRALAALAKALL-NH2 [ER6] |  | < 3 | 3 to 10 |
| INLRALAALAKKLL-NH2 [MAS20] |  | 3 to 10 | 3 to 10 |
| INLRALAALARALL-NH2 [ER7] |  | < 3 | 3 to 10 |
| INLRALAALRRRLL-NH2 [ER28] |  | < 3 | 3 to 10 |
| INLRALRALARALL-NH2 [ER24] |  | < 3 | 3 to 10 |
| INWRAWRAWARAWL-NH2 [ER27] |  | < 3 | 3 to 10 |
| INYKALAACAKKIL-NH2 [ER14] |  | 3 to 10 | 3 to 10 |
| INYKALAALAKALC-NH2 [ER17] |  | 3 to 10 | 10 to 30 |
| INYKALCALAKKIL-NH2 [ER15] |  | 30 to 100 | 10 to 30 |
| IQLKALAALAKALL-NH2 [ER12] |  | 3 to 10 | 3 to 10 |
| IVYREAKEQIRKIDRVL-NH2 [ER22] | 30 to 100 | 30 to 100 |  |
| IVYREAKEQIRKIL-NH2 [ER23] | 30 to 100 | 30 to 100 |  |
